# Source: article PMC6198068, “Discovery of a Novel Nav1.7 Inhibitor From Cyriopagopus albostriatus Venom With Potent Analgesic Efficacy” (Frontiers in Pharmacology, 2018)
# Assays:
# [1] = test system: formalin-induced paw licking in mice; experiment: Formalin-induced paw licking; assay type: in vivo, ICR mice; details: mouse, in vivo, ip
# Method: (§1) The ICR mice (18–22 g) used in this study were purchased from the Experimental Animal Center of SLac-kinda (Changsha, China). The animals were maintained at 20–25°C and freely allowed to standard rodent chow and water ad libitum. Ethical approval for in vivo experiments in animals was approved by the Animal Care and Use Committee (ACUC) at the Hunan Province Animal Management Office (HPAMO).
# A formalin test was performed according to the previous method ([Owoyele et al., 2005]). […] The time spent licking the injected paw by each mouse was recorded by a digital stopwatch during Phase I (0–15 min post-injection) and Phase II (15–40 min post-injection).
# hot plate test in mice = experiment: Hot plate test; assay type: in vivo, ICR mice; details: mouse, in vivo
# Method: as §1
# According to a previous method ([Meng et al., 2017]), a hot plate apparatus (model YLS-21A, Jinan, China) maintained at 55 ± 1°C, was used to measure the pain threshold of mice subjected to a thermal stimulus. Each female mouse was placed on hot plate to observe its pain response (hind-paw-licking or jumping) acted as its own control. The mice whose latent response times were shorter than 5 s or longer than 30 s were excluded from the test.
# Nav1.4 = test system: Nav1.4; set-up: method as in Xiao et al., 2008; Goncalves et al., 2018; details: skeletal isoform; ref Xiao et al., 2008; Goncalves et al., 2018; cited from earlier work
Compound,analgesic effect on Phase I compared to control [1],"paw licking time, Phase I [1] [s]","paw licking time, Phase II [1] [s]","latency time, hot plate (hot plate test in mice) [s]",IC50 (Nav1.4) [nM]
"CN1CC[C@]23c4c5ccc(O)c4O[C@H]2[C@@H](O)C=C[C@H]3[C@H]1C5 [morphine, reference compound]",modest analgesia,64.1 ± 8.5,126.1 ± 19.8,15.2 ± 1.9,–
"HWTX-IV: spider peptide toxin; printed as μ-TRTX-Hhn1b (HWTX-IV) in b50, μ-TRTX-Hs2a (HWTX-IV) in b51",–,–,–,–,400
